{"source": "paper PMC6438538", "about": "“Targeting ferroptosis: A novel therapeutic strategy for the treatment of mitochondrial disease-related epilepsy” (PLoS ONE, 2019)", "biological_target": "T1, 15-lipoxygenase-1 (15-LO) (Homo sapiens, UniProt P16050)", "T1 construct": "gene ALOX15; 6xHis-tagged human 15-LO", "T1 sequence (P16050 2-662)": "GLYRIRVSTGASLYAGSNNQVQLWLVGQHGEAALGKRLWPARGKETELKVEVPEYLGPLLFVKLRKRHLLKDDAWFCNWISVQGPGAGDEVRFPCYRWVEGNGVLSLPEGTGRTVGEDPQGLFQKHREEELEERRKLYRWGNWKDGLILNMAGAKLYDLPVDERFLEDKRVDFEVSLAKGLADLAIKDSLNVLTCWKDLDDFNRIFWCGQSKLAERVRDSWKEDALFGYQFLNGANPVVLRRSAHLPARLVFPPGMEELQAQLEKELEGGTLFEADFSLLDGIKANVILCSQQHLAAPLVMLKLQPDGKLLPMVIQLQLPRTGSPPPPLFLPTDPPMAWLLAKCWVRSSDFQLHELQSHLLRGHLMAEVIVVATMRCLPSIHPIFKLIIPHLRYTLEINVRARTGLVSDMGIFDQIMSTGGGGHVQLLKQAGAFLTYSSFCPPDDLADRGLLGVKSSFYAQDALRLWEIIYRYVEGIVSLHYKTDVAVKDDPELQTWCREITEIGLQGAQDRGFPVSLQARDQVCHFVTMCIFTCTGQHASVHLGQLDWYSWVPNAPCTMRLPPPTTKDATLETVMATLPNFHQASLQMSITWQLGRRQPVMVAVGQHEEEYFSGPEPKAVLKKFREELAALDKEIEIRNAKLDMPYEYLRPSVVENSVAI", "assay": "ferrous oxidation-xylenol orange (FOX) assay with purified human 15-LO and arachidonic acid", "assay_type": "biochemical", "data": [{"smiles": "CC(C)=CCC/C(C)=C/CC/C(C)=C/CC[C@@](C)(O)CCc1c(C)c(O)c(C)c(C)c1O", "note": "[EPI-743-HQ, EPI-743 hydroquinone]", "values": [{"measurement": "IC50", "result": 4.4, "unit": "µM"}]}]}
